Reference: BindingDB's records for patent US11980598 (Beijing Greatway Pharmaceutical Technology Co., 2024)

Molecular target: T1, 5-hydroxytryptamine receptor 2C (Homo sapiens, UniProt P28335)
T1 sequence (P28335 whole entry): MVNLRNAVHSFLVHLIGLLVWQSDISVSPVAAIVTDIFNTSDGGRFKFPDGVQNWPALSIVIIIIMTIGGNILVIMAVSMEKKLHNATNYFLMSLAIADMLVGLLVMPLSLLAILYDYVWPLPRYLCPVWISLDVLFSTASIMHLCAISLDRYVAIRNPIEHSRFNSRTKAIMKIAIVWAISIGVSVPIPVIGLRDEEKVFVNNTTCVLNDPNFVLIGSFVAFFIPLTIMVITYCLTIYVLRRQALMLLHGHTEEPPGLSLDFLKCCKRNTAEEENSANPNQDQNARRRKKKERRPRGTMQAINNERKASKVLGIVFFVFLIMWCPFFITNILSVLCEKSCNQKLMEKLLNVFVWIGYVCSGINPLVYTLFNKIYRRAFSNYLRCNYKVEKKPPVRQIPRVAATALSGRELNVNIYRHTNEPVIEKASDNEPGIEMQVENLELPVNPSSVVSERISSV
Assay: 5-HT2C Receptor Binding Test
Description: 50 μg of the receptor membrane protein 5-HT2C was added to all the tubes. […] All the tubes were added with 40 μL of [3H]-LSD (lysergic acid diethylamide), respectively. […] The filter paper was taken out and dried by baking, and then placed in a scintillation bottle. 1 mL of the scintillation liquid was added, and the radioactive intensity was measured by a liquid scintillation counter

SMILES | IC50
COc1cc2c(CCNC(C)=O)cccc2cc1Cl [US11980598, Compound 1] | 0.77 nM
COc1cc2c(CCNC(C)=O)cccc2cc1F [US11980598, Compound 4] | 20.8 nM
